Measurements: US12195464B2, “Lumateperone bis-tosylate salts and crystals and methods for manufacture thereof” (INTRA-CELLULAR THERAPIES, INC., priority 2018, dated 2025)

Assays:
[1] = solubility in organic solvents; format: physicochemical; settings: free base, variety of organic solvents
H1 histaminergic = H1 histaminergic (Homo sapiens, UniProt P35367); settings: receptor associated with cognitive and metabolic side effects; cited from earlier work
5-HT2C = target: T1, 5-HT2C (Homo sapiens, UniProt P28335); settings: receptor associated with cognitive and metabolic side effects; cited from earlier work
T1 sequence (P28335 33-458): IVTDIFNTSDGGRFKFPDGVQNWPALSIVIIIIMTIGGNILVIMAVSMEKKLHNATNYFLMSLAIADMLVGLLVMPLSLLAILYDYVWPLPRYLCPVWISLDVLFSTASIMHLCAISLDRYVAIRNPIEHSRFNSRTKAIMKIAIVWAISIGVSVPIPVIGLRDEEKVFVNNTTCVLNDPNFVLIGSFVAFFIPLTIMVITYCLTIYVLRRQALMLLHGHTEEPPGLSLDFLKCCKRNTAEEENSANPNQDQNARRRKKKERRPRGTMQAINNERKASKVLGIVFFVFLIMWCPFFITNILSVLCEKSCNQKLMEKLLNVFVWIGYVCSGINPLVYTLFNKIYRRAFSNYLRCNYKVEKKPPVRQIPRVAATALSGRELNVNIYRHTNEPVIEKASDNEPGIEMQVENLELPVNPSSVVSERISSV

muscarinic = settings: receptor associated with cognitive and metabolic side effects; cited from earlier work
NMDA and AMPA signaling = settings: especially in the medial prefrontal cortex (mPFC); indirectly via D1 interaction; cited from earlier work
[2] = free base form; cited from earlier work
[3] = salt of U.S. Pat. No. 7,183,282; cited from earlier work
[4] = salt of U.S. Pat. No. 7,183,282; cited from earlier work; remark: listed apart in the source

H1 histaminergic, sequence (P35367 whole entry): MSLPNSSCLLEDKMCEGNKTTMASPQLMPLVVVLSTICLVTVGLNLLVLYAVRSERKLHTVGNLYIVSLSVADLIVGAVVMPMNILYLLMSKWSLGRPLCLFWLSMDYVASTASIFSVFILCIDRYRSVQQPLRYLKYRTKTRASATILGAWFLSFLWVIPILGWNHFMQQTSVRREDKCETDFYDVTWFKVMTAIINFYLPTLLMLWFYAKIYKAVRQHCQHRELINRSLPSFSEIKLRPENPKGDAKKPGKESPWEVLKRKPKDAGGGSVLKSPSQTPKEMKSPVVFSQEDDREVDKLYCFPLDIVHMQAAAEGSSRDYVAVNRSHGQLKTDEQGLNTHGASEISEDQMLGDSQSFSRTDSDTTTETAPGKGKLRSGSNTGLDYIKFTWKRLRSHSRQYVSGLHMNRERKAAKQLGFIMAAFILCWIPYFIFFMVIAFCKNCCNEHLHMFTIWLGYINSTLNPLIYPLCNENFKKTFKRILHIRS

For `CN1CCN2c3c(cccc31)[C@@H]1CN(CCCC(=O)c3ccc(F)cc3)CC[C@@H]12` [ITI-007, 4-((6bR,10aS)-3-methyl-2,3,6b,9,10,10a-hexahydro-1H-pyrido[3′,4′:4,5]pyrrolo[1,2,3-de]quinoxalin-8(7H)-yl)-1-(4-fluorophenyl)-1-butanone], the “solubility in organic solvents” value [1] is given as “good solubility”, the “binding to H1 histaminergic receptor” value (H1 histaminergic) is given as “negligible binding” and the “binding to 5-HT2C receptor” value (5-HT2C) is given as “negligible binding”. The “binding to muscarinic receptors” value (muscarinic) was “negligible binding”, the “NMDA and AMPA signaling in the brain” value (NMDA and AMPA signaling) was “enhanced” and the aqueous solubility [2] was “poor aqueous solubility”.

In the case of `CN1CCN2c3c(cccc31)C1CN(CCCC(=O)c3ccc(F)cc3)CCC12.Cl` (centres unmarked) [hydrochloride salt form of ITI-007], the “hygroscopicity (in words)” value [3] is listed as “hygroscopic” and the “stability (in words)” value [4] is listed as “poor stability”.
